Patent US11786534B2 (TAIHO PHARMACEUTICAL CO., LTD., priority 2019, dated 2023)

Tests used:
[1] = target: Ba/F3-EGFR (d746-750/T790M/C797S) (Homo sapiens, UniProt P00533, DEL746-750/T790M/C797S, cells depend on it); assay: Growth inhibition of cell line expressing EGFR (d746-750/T790M/C797S); format: cell-based, mouse; conditions: Test Example 2, Table 7; culture 3 days, CellTiter-Glo; read-out: BaF3_EGFR (d746-750/T790M/C797S) IC50 value
Excerpt: Test for inhibitory activity against the growth of cell lines expressing wild-type and mutated EGFRs (in vitro)
(1) Mouse cell line Ba/F3-EGFR (d746-750/T790M/C797S) transfected with and stably expressing EGFR (d746-750/T790M/C797S), mouse cell Ba/F3-EGFR (L858R/T790M/C797S) transfected with and stably expressing EGFR (L858R/T790M/C797S), and mouse cell line Ba/F3-EGFR (WT) transfected with and stably expressing wild-type EGFR were each suspended in RPMI-1640 cell culture medium (RPMI-1640, 10% FBS, 100 unit/ml penicillin, 0.1 mg/ml streptomycin). In the case of the mouse cell line Ba/F3-EGFR (WT), RPMI-1640 cell culture medium containing EGF at a final concentration of 50 ng/ml was used to suspend this cell line. It should be noted that the mouse cell line Ba/F3-EGFR (d746-750/T790M/C797S) transfected with and stably expressing EGFR (d746-750/T790M/C797S), the mouse cell line Ba/F3-EGFR (L858R/T790M/C797S) transfected with and stably expressing EGFR (L858R/T790M/C797S) and the mouse cell line Ba/F3-EGFR (WT) transfected with and stably expressing wild-type EGFR were prepared by using nucleotide sequences encoding the proteins of SEQ ID NOs: 1 and 2 in accordance with Test Example 1 in WO2018/079310, These cell suspensions were seeded in wells of 96-well flat -bottomed plates. The compounds of the present invention were dissolved in DMSO, and serial dilutions of these test compounds were prepared with DMSO (1000-fold of the final concentration). Each test compound solution in DMSO or DMSO alone was diluted with RPMI-1640 cell culture medium for each cell line, and this dilution was added to wells of the cell culture plate such that the final concentration of DMSO was 0.1%, followed by culture at 37° C. for 3 days in a 5% carbon dioxide gas-containing incubator. Before and after addition of each test compound solution in DMSO, the number of cells was counted using the CellTiter-Glo® system (Promega) on the basis of the protocol recommended by Promega.
In each cell line, the rate of cell growth inhibition was calculated according to the equation shown below in wells to which each test compound was added at different concentrations. Moreover, the inhibition rate at each concentration was plotted for each test compound, and the concentration of each test compound required to give 50% cell survival rate, i.e., IC50 (nM) was determined by curve fitting software XLfit (IDBS).
Cell survival rate (%)=T/C×100
T: emission intensity in a well cultured for 3 days after addition of a test compound solution
C: emission intensity in a well cultured for 3 days after addition of DMSO
In accordance with the same procedures as shown in Test Example 2, the compounds of the present invention were tested for their inhibitory activity against the growth of the cell hoes expressing wild-type and mutated EGFRs.

human EGFR (L858R/C797S) = target: T1, human EGFR (L858R/C797S) (Homo sapiens, UniProt P00533, C797S/L858R); assay: Inhibitory activity against EGFR (L858R/C797S) kinase; format: biochemical; conditions: Test Example 1, Table 5; ATP 4 μM, 90 minutes
T1 construct: purchased SignalChem
T1 sequence (P00533 25-1210 C797S/L858R): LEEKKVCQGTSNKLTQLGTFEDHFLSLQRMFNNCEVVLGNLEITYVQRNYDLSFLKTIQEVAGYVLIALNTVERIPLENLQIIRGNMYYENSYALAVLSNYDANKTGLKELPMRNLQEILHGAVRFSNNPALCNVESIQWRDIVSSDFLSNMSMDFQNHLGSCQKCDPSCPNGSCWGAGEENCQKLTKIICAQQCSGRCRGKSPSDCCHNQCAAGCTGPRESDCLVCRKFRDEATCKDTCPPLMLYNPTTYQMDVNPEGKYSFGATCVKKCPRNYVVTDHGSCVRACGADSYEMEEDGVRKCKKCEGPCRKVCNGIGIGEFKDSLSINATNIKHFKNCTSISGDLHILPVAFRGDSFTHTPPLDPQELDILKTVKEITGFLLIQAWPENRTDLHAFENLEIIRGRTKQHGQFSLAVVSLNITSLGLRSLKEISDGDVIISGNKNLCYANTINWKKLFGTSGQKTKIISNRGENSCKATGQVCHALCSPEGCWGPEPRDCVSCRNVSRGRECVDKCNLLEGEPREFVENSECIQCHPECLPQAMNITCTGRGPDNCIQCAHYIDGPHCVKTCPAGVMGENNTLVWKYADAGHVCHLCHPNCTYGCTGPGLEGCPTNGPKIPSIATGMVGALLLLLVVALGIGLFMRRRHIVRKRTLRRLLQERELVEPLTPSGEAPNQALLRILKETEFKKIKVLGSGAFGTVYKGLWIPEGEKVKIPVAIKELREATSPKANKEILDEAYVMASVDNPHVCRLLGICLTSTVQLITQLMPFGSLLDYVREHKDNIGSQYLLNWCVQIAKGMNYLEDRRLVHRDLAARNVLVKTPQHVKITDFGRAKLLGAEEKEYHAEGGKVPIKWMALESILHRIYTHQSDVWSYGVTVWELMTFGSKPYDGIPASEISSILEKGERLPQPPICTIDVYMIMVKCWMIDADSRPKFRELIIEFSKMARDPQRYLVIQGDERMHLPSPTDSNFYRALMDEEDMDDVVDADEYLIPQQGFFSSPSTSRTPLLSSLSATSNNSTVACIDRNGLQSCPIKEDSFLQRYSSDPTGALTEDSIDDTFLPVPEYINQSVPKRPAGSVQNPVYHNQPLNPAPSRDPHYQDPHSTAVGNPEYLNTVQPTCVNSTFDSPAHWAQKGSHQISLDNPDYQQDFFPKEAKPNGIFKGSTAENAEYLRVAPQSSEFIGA
In short: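 Purified recombinant human EGFR (C797S/L858R) kinase, final ATP 4 μM, 90-minute kinase reaction, otherwise per the EGFR (d746-750/C797S) protocol. IC50 (nM) determined from inhibition data.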

Ba/F3-EGFR (d746-750/T790M/C797S), sequence (P00533 with tags, fused parts or gaps DEL746-750/T790M/C797S): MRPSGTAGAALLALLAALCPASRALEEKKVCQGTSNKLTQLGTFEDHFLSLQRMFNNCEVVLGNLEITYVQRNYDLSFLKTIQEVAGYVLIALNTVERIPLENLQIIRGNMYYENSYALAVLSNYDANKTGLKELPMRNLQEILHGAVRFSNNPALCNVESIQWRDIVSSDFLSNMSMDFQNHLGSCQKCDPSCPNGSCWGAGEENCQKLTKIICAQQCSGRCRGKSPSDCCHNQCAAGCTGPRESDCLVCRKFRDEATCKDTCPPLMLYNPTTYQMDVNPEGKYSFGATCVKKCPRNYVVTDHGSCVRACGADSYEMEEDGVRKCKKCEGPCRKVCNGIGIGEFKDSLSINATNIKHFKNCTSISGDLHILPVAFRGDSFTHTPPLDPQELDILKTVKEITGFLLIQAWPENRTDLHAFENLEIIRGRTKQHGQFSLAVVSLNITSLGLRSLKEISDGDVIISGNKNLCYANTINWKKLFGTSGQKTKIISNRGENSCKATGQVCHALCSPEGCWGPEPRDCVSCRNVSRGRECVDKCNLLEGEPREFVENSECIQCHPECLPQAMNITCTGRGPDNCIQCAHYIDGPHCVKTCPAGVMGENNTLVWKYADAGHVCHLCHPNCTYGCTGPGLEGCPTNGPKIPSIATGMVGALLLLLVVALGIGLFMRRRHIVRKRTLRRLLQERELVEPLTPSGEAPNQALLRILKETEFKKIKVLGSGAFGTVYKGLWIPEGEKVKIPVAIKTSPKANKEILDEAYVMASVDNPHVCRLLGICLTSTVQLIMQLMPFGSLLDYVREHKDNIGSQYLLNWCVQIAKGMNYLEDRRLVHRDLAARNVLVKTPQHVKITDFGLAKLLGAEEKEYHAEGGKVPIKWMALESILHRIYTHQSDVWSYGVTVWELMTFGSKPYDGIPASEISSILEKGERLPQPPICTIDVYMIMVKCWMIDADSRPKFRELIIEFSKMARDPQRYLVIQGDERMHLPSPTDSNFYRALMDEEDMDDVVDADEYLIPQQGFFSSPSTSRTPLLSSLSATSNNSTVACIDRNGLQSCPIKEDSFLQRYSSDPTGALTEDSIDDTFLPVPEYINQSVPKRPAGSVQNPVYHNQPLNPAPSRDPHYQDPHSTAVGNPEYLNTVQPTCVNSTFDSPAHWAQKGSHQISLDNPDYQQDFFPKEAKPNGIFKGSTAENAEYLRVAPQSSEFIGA

Structure (SMILES): C#Cc1c(-c2cnc3ccccc3c2)c2c(N)ncnc2n1[C@@H]1CCN(C(=O)C=C)C1 [Comparative Example B, (R)-1-(3-(4-Amino-6-ethynyl-5-(quinolin-3-yl)-7H-pyrrolo[2,3-d]pyrimidin-7-yl) -pyrrolidin-1-yl)-prop-2-en-1-one, reference compound]
- GI50 [1]: 1.07 µM
- IC50 (human EGFR (L858R/C797S)): 0.097 µM

Structure (SMILES): C#Cc1c(-c2cnc3ccccc3c2)c2c(N)ncnc2n1C12CCC(NC(=O)c3cccnn3)(CC1)C2 [Example 49]
- GI50 [1]: 0.019 µM
- IC50 (human EGFR (L858R/C797S)): 0.00063 µM
